Reference: US8664252B2, “Phosphodiesterase type III (PDE III) inhibitors or CA2+-sensitizing agents for the treatment of hypertrophic cardiomyopathy” (Boehringer Ingelheim Vetmedica GmbH, priority 2008, dated 2014)

System: Cats Suffering from HCM
Test: Treatment of a cat suffering from HCM with acute circulatory failure (clinical case)
Format: in vivo
Description: A 15 year old castrated male tomcat of mixed breed (mother Persian, father European short hair, bodyweight 6 kg) was brought to the veterinary clinic in March 2008. The animal was lethargic and unable to move. Examination of the cardiovascular system indicated acute circulatory failure, accompanied with tachycardia (>180 bpm). Echocardiographic investigation indicated a thickened left ventricular wall and septum, which are related to HCM.
Because of the desperate situation 1.25 mg pimobendan were applied orally with the expectation/fear that this measure would/could probably further deteriorate the status of the cat.
This treatment is still being continued.

SMILES	control of acute circulatory failure (clinical situation) (15 year old tomcat with HCM, 6 kg, furosemide 1 mg/kg i.v., immediate administration)	clinical symptoms / recovery (same cat, after insufficient furosemide, 1.25 mg pimobendan orally, single application)	left ventricular filling and systolic function (ultrasound) (same cat, continued treatment 20 microgram/kg/day pimobendan orally)
NS(=O)(=O)c1cc(C(=O)O)c(NCc2ccco2)cc1Cl [furosemide]	did not result in a sufficient control of the situation	–	–
COc1ccc(-c2nc3cc(C4=NNC(=O)CC4C)ccc3[nH]2)cc1 (stereo not drawn) [pimobendan, 4,5-dihydro-6-[2-(4-methoxyphenyl)-1H-benzimidazol-5-yl]-5-methyl-3 (2H)-pyridazinone]	–	clinical symptoms improved and the cat recovered within a few hours	significant recovery of left ventricular filling and systolic function
